Measurements published in article PMC5063977 (The Journal of Biological Chemistry, 2016).

What was measured:
Format in all cases: cell-based
RAMP2-CLR (AM1 receptor) [1] = target: T1, RAMP2-CLR (AM1 receptor) (Homo sapiens, UniProt O60895+Q16602); assay: cAMP accumulation, HEK-293S cells, RAMP2 + CLR; conditions: HEK293S, untreated, percentage of maximal cAMP with 100 μM forskolin in presence of PTX, mean ± S.E., n = 5
T1 construct: FLAG; expressed in transfected cells; host or cells: HEK-293 or HEK-293S cells, transient transfection, 1:1 RAMP:CLR
Protocol: (§1) HEK-293 cells were transfected with FuGENE 6 (Roche Applied Science) in accordance with the manufacturer's instructions using a 1:3 (w:v) DNA:FuGENE ratio and a 1:1 ratio of RAMP to CLR. […] The transfected cell lines were grown for 24–48 h prior to assaying.
(§2) The transfected HEK-293 cells were washed in PBS, resuspended in stimulation buffer (PBS containing 0.1% BSA and 0.5 mM IBMX), and seeded at 2000 cells/well in 384-well white Optiplates. Ligands were added in the range of 1 pM to 1 mM, and cAMP accumulation was measured after 30 min of stimulation using a LANCE® cAMP detection kit (PerkinElmer Life Sciences). […] Plates were read using a Mithras LB 940 multimode microplate reader (Berthold Technologies). […] Values were converted to concentration using a cAMP standard curve performed in parallel.
(§3) Data analysis for cAMP assays was performed in GraphPad Prism 6.0f (San Diego, CA). […] These values were then used to quantify signaling bias as change in log (τ/Ka) relative to the natural cognate ligand for the respective receptor ([41]). […] Statistical differences were analyzed using one-way ANOVA or Student's t test as appropriate with post hoc Bonferroni's or Dunnett's multiple comparisons, and p < 0.05 was considered significant. […] To quantitate the ligand-dependent response in the yeast system, a strain lacking GPA1 (MMY11), grown in rich medium, was used as a standard ([72]). […]

RAMP2-CLR (AM1 receptor) [2] = target: T1, RAMP2-CLR (AM1 receptor); assay: (Ca^2+)i mobilization, HEK-293 cells, RAMP2 + CLR; conditions: HEK293, percentage of maximal (Ca^2+)i release with 10 μM ionomycin, mean ± S.E., n = 5
Protocol: as §1
Transfected HEK-293 cells were grown to confluence in black, clear bottomed, 96-well plates. […] Cells were then washed followed by the addition of 100 μl of Ca^2+-free Hanks' balanced salt solution. […] Recordings were obtained every 0.5 s for 120 s. Peak magnitude was calculated using five-point smoothing followed by correction against background fluorescence. The peak was used to generate concentration-response curves and normalized relative to 10 μM ionomycin.
as §3

RAMP3-CLR (AM2 receptor) = target: T2, RAMP3-CLR (AM2 receptor) (Homo sapiens, UniProt O60896+Q16602); assay: cAMP accumulation, HEK-293S cells, RAMP3 + CLR; design: dose or concentration left out as unconfirmed; conditions: HEK293S, mean ± S.E., n = 5
T2 construct: FLAG; expressed in transfected cells; host or cells: HEK-293 or HEK-293S cells, transient transfection, 1:1 RAMP:CLR
Protocol: HEK-293 cells, provided by Dr. Jügen Müller (University of Aston), were cultured in DMEM supplemented with 10% heat-inactivated FBS and kept at 37 °C in a humidified 95% air, 5% CO2 incubator. HEK-293S cells (a gift from AstraZeneca) were cultured in DMEM supplemented with 8% heat-inactivated FBS and kept at 37 °C in a humidified 95% air, 5% CO2 incubator. HEK-293 cells were transfected with FuGENE 6 (Roche Applied Science) in accordance with the manufacturer's instructions using a 1:3 (w:v) DNA:FuGENE ratio and a 1:1 ratio of RAMP to CLR. HEK-293S cells were seeded into 96-well poly-D-lysine-coated plates at a density of 15,000 cells/well (determined using a Countess^TM cell counter, Invitrogen) 1 day prior to transfection. HEK-293S cells were transiently transfected as described previously ([38]) using a 1:1 ratio of RAMP to CLR. The transfected cell lines were grown for 24–48 h prior to assaying.
The transfected HEK-293 cells were washed in PBS, resuspended in stimulation buffer (PBS containing 0.1% BSA and 0.5 mM IBMX), and seeded at 2000 cells/well in 384-well white Optiplates. Ligands were added in the range of 1 pM to 1 mM, and cAMP accumulation was measured after 30 min of stimulation using a LANCE® cAMP detection kit (PerkinElmer Life Sciences). […] Plates were read using a Mithras LB 940 multimode microplate reader (Berthold Technologies). […]

[3] = target: T3, RAMP1-CLR (CGRP receptor) (Homo sapiens, UniProt O60894+Q16602); assay: cAMP accumulation, HEK-293S cells, RAMP1 + CLR; conditions: HEK293S, untreated, percentage of maximal cAMP with 100 μM forskolin, mean ± S.E., n = 5
T3 construct: FLAG; expressed in transfected cells; host or cells: HEK-293 or HEK-293S cells, transient transfection, 1:1 RAMP:CLR
Protocol: as §1, §2, §3

T1 sequence (Q16602 23-461): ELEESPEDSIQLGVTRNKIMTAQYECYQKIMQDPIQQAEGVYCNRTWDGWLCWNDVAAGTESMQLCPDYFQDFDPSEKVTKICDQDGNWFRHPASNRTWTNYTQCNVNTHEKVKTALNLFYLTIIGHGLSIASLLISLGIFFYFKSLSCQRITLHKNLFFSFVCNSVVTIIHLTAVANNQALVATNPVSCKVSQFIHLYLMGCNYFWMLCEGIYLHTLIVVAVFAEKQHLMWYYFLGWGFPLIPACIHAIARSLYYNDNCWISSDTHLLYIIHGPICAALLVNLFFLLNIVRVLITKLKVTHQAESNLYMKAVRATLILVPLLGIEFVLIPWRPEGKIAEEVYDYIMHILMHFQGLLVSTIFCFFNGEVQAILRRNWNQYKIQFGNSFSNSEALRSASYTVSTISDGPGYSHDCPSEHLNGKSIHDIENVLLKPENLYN
T1 sequence (O60895 43-175): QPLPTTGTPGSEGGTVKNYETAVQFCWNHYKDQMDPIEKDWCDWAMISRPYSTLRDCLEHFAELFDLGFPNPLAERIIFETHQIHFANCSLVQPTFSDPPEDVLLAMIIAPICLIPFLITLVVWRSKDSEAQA
T2 sequence (Q16602 23-461): as the sequence (Q16602 23-461) above
T2 sequence (O60896 24-148): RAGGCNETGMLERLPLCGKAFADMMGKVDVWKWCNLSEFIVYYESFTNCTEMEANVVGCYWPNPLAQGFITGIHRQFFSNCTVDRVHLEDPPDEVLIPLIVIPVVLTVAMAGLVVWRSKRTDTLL
T3 sequence (Q16602 23-461): as the sequence (Q16602 23-461) above
T3 sequence (O60894 27-148): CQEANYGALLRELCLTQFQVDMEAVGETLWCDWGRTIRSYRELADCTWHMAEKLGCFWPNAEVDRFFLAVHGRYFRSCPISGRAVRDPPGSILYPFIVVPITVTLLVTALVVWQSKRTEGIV

SMILES	Emax (RAMP2-CLR (AM1 receptor) [1]) [%]	Emax (RAMP2-CLR (AM1 receptor) [2]) [%]	Emax (RAMP3-CLR (AM2 receptor)) [%]	Emax [3] [%]
CSCC[C@H](NC(=O)[C@H](CC(C)C)NC(=O)[C@H](CCC(N)=O)NC(=O)[C@H](Cc1c[nH]c2ccccc12)NC(=O)[C@H](CC(C)C)NC(=O)[C@H](CCCNC(=N)N)NC(=O)[C@H](Cc1c[nH]cn1)NC(=O)[C@H](CO)NC(=O)[C@H](CC(C)C)NC(=O)[C@H](CC(N)=O)NC(=O)[C@H](CCC(N)=O)NC(=O)[C@@H](NC(=O)[C@H](CCC(N)=O)NC(=O)[C@@H]1CSSC[C@H](NC(=O)CNC(=O)[C@@H](NC(=O)[C@H](CCCNC(=N)N)NC(=O)[C@H](CC(C)C)NC(=O)[C@H](CC(C)C)NC(=O)[C@H](CCC(N)=O)NC(=O)[C@H](C)NC(=O)[C@H](CCC(N)=O)NC(=O)[C@@H](N)[C@@H](C)O)C(C)C)C(=O)N[C@@H](C(C)C)C(=O)N[C@@H](CC(C)C)C(=O)NCC(=O)N[C@@H]([C@@H](C)O)C(=O)N1)C(C)C)C(=O)NCC(=O)N1CCC[C@H]1C(=O)N[C@@H](C)C(=O)NCC(=O)N[C@@H](CCCNC(=N)N)C(=O)N[C@@H](CCC(N)=O)C(=O)N[C@@H](CC(=O)O)C(=O)N[C@@H](CO)C(=O)N[C@@H](C)C(=O)N1CCC[C@H]1C(=O)N[C@H](C(=O)N[C@@H](CC(=O)O)C(=O)N1CCC[C@H]1C(=O)N[C@@H](CO)C(=O)N[C@@H](CO)C(=O)N1CCC[C@H]1C(=O)N[C@@H](Cc1c[nH]cn1)C(=O)N[C@@H](CO)C(=O)N[C@@H](Cc1ccc(O)cc1)C(N)=O)C(C)C [AM2, adrenomedullin 2]	40.3 ± 1.5	44.4 ± 7.1	–	–
CC[C@H](C)[C@H](NC(=O)[C@H](CCC(N)=O)NC(=O)[C@H](Cc1c[nH]cn1)NC(=O)[C@H](C)NC(=O)[C@H](CC(C)C)NC(=O)[C@H](CCCCN)NC(=O)[C@H](CCC(N)=O)NC(=O)[C@@H](NC(=O)[C@@H](NC(=O)[C@@H]1CSSC[C@H](NC(=O)CNC(=O)[C@H](Cc2ccccc2)NC(=O)[C@H](CO)NC(=O)[C@H](CCCNC(=N)N)NC(=O)[C@H](CC(C)C)NC(=O)CNC(=O)[C@H](CCC(N)=O)NC(=O)[C@H](Cc2ccccc2)NC(=O)[C@H](CC(N)=O)NC(=O)[C@H](CC(N)=O)NC(=O)[C@H](CCSC)NC(=O)[C@H](CO)NC(=O)[C@H](CCC(N)=O)NC(=O)[C@H](CCCNC(=N)N)NC(=O)[C@@H](N)Cc2ccc(O)cc2)C(=O)N[C@@H](CCCNC(=N)N)C(=O)N[C@@H](Cc2ccccc2)C(=O)NCC(=O)N[C@@H]([C@@H](C)O)C(=O)N1)[C@@H](C)O)C(C)C)C(=O)N[C@@H](Cc1ccc(O)cc1)C(=O)N[C@@H](CCC(N)=O)C(=O)N[C@@H](Cc1ccccc1)C(=O)N[C@H](C(=O)N[C@@H](CC(=O)O)C(=O)N[C@@H](CCCCN)C(=O)N[C@@H](CC(=O)O)C(=O)N[C@@H](CCCCN)C(=O)N[C@@H](CC(=O)O)C(=O)N[C@@H](CC(N)=O)C(=O)N[C@H](C(=O)N[C@@H](C)C(=O)N1CCC[C@H]1C(=O)N[C@@H](CCCNC(=N)N)C(=O)N[C@@H](CO)C(=O)N[C@@H](CCCCN)C(=O)N[C@H](C(=O)N[C@@H](CO)C(=O)N1CCC[C@H]1C(=O)N[C@@H](CCC(N)=O)C(=O)NCC(=O)N[C@@H](Cc1ccc(O)cc1)C(N)=O)[C@@H](C)CC)C(C)C)[C@@H](C)O [AM, adrenomedullin]	–	–	39.1 ± 1.2	60 ± 3.1
